Square brackets hold non-standard residues; d marks the D form. Ends that are not written are not given here. Peptide text beside a SMILES is read from it.
What was measured:
rats = assay: Analgesia after intracerebral microinjection in rats (tail-flick, flinch-jump, limb pinch); format: in vivo, rat
Experimental: Sprague-Dawley rats were stereotaxically implanted with chronic indwelling cannulae guides constructed from 23 gauge TW stainless steel tubing and fitted with stilettes of corresponding length. […] Testing was initiated approximately one week following surgery. The compounds being assessed for analgesic activity were dissolved in pyrogen-free water and microinjected at various dose levels in a volume 1 μl through 30 gauge injectors which protruded 2 mm past the guide cannulae tips.
Analgesia was assessed by the D'Amour and Smith "tail-flick" procedure, the "flinch-jump" test, and by subjectively evaluating an animal's reaction to pinches of the limbs with forceps. In the "tail-flick" test, a high intensity light was focused on a rat's tail which had been blackened with a felt-tip pen, and the time that it took an animal to remove its tail from this radiant heat was measured to the nearest 0.5 second. In the "flinch-jump" test, AC shock intensity at which an animal jumped and squealed was quantified 15 minutes after an injection (immediately after testing in the tail-flick test). Reactions to limb pinches were also noted at this time. Baseline measures were always taken approximately one hour prior to injection. All animals were tested at 1, 5, 15, 30, 60, 120, and 180 minutes after injection and then at one hour intervals until their response latencies had recovered to baseline levels.

opiate receptors = assay: Opiate receptor affinity by inhibition of stereospecific 3H-naloxone binding to rat brain membranes; conditions: for IC50: rat brain membranes, 1 h at 0° C., 100 mM NaCl, 1.3 nM 3H-naloxone, read-out: Opiate Receptor Affinity (concentration causing 50% inhibition of stereospecific 3H-naloxone binding); for opiate receptor affinity, fold greater than the corresponding L-Ala2 isomer: vs L-Ala2-Met-enkephalin-amide
Experimental: Male rats weighing 180-200 g (Sprague-Dawley) were decapitated and each brain with the cerebellum removed was homogenized in 150 mls of ice-cold standard buffer (0.05 M Tris-HCl, pH 7.0 at 25° C.). After refrigerated centrifugation at 12,000×g, the membranes were reconstituted in the standard buffer. After recentrifugation, each brain was suspended in 10 mls of the standard buffer. Aliquots of the freshly prepared membrane preparation (100 μl) were incubated for one hour at 0° C. with various concentrations of the pentapeptide and 100 mM NaCl in a final volume of 0.5 ml with ^3 H-naloxane (New England Nuclear, 34 Ci/mmole) in a concentration of 1.3 nM (20,000 cpm). Incubation was begun with the addition of brain membranes, which were added last. After rapid filtration and washing with two 7 ml portions of ice-cold standard buffer, membrane-laden filters were transferred and counted at 40-45% efficiency at least six hours after shaking with detergent scintillation fluor (Aquasol, New England Nuclear). Control incubations containing levallorphan (100 nM) or dextrallorphan (100 nM) were included. Stereospecific binding (^3 H-naloxone bound in the presence of levallorphan subtracted from binding in the presence of dextrallorphan) represented 85-90% of the total bound naloxane in all experiments. Control values in all experiments ranged between 2000-2800 cpm. From a plot of the percent inhibition of stereospecific ^3 H-naloxane binding as a function of pentapeptide concentration, the opiate receptor affinity of the pentapeptide was determined as that concentration of pentapeptide, in μM, causing 50% inhibition of stereospecific ^3 H-naloxone binding. In this test, the lower the numerical value obtained, the higher is the opiate receptor affinity of the pentapeptide.

[1] = Preincubation with rat brain membranes under physiological conditions at 37° C., then residual opiate receptor inhibitory activity; format: in vitro ADME
[2] = tested on: rat brain opiate receptors; conditions: cited from earlier work
rat = conditions: cited from earlier work; for duration of analgesia: injected directly into active brain sites
[3] = 5-10 μg microinjected into rat brain

## CSCC[C@H](NC(=O)[C@H](Cc1ccccc1)NC(=O)CNC(=O)[C@@H](C)NC(=O)[C@@H](N)Cc1ccc(O)cc1)C(N)=O [D-Ala^2 -Met-enkephalin-amide]
rats; 10 μg microinjected, 1 and 2 hours after injection
  intensity of analgesia compared with 5 μg of morphine: not as intense
rats; 10 μg microinjected, rat
  persistence of analgesia compared with 5 μg of morphine: about the same length of time
rats; [3]
  analgesic effects compared with comparable dose levels of morphine: almost as potent and long-lasting
  duration of action (analgesia): several hours
rats; 5-10 μg microinjected, periaqueductal gray, rat
  analgesia elicited: quite effective in eliciting analgesia
rats; 5-10 μg microinjected, rat
  persistence of analgesia after injection: three
rats; naloxone 2 mg/kg i.p. 15 minutes before 10 μg microinjection
  effect of naloxone preinjection on analgesia: almost complete reversal of analgesia
Opiate receptors
  IC50: 400 nM
  opiate receptor affinity, fold greater than the corresponding L-Ala2 isomer: 10 fold

## CSCC[C@H](NC(=O)[C@H](Cc1ccccc1)NC(=O)CNC(=O)[C@@H](C)NC(=O)[C@@H](N)Cc1ccc(O)cc1)C(=O)O [D-Ala^2 -Met-enkephalin]
rats; [3]
  duration of action (analgesia): several hours
rats; microinjected, rat
  analgesia results compared with D-Ala2-Met-enkephalin-amide: quite similar
rats; rat, in vivo
  analgesic effects compared with comparable dose levels of morphine: almost as potent and long-lasting
Opiate receptors
  IC50: 400 nM
  opiate receptor affinity, fold greater than the corresponding L-Ala2 isomer: 10 fold

## CSCC[C@H](NC(=O)[C@H](Cc1ccccc1)NC(=O)CNC(=O)[C@@H](Cc1ccccc1)NC(=O)[C@@H](N)Cc1ccc(O)cc1)C(N)=O [D-Phe^2 -Met-enkephalin-amide] (H-Y[dF]GFM-NH2)
Opiate receptors
  IC50: 2000 nM

## CSCC[C@H](NC(=O)[C@H](Cc1ccccc1)NC(=O)CNC(=O)[C@H](NC(=O)[C@@H](N)Cc1ccc(O)cc1)C(C)C)C(N)=O [D-Val^2 -Met-enkephalin-amide] (H-Y[dV]GFM-NH2)
rats; microinjected, rat
  dose level needed to produce the same analgesic response as 5 μg of D-Ala2-Met-enkephalin-amide: 20 µg
Opiate receptors
  IC50: 4000 nM

## CSCC[C@H](NC(=O)[C@H](Cc1ccccc1)NC(=O)CNC(=O)[C@H](C)NC(=O)[C@@H](N)Cc1ccc(O)cc1)C(N)=O [L-Ala^2 -Met-enkephalin-amide, reference compound]
[1]
  preincubation time after which complete loss of opiate receptor inhibitory activity resulted: 60 min
rats; 10 μg microinjected, rat
  analgesia elicited: failed to elicit any significant analgesia
Opiate receptors
  IC50: 4000 nM

## CC(C)C[C@H](NC(=O)[C@H](Cc1ccccc1)NC(=O)CNC(=O)CNC(=O)[C@@H](N)Cc1ccc(O)cc1)C(=O)O [Leu-enkephalin, H-L-Tyr-Gly-Gly-L-Phe-L-Leu-OH, reference compound]
Opiate receptors
  IC50: 700 nM

## CSCC[C@H](NC(=O)[C@H](Cc1ccccc1)NC(=O)CNC(=O)CNC(=O)[C@@H](N)Cc1ccc(O)cc1)C(=O)O [Met-enkephalin, H-L-Tyr-Gly-Gly-L-Phe-L-Met-OH]
[1]
  preincubation time after which complete loss of opiate receptor inhibitory activity resulted: 20 min
[2]
  affinity for rat brain opiate receptors relative to morphine: about half
rat
  duration of analgesia: several minutes
rat; rat, in vivo
  analgesic potency, fold weaker than morphine: at least 50 fold
rats; 120 μg microinjected, rat
  analgesia elicited: relatively low level of analgesia
  time after injection by which analgesia returned to pre-drug level: ≤ 5 min
Opiate receptors
  IC50: 200 nM

## CSCC[C@H](NC(=O)[C@H](Cc1ccccc1)NC(=O)CNC(=O)CN(C)C(=O)[C@@H](N)Cc1ccc(O)cc1)C(N)=O [Sar^2 -Met-enkephalin-amide]
Opiate receptors
  IC50: 8000 nM

## CN1CC[C@]23c4c5ccc(O)c4O[C@H]2[C@@H](O)C=C[C@H]3[C@H]1C5 [morphine]
rat
  duration of analgesia: several hours

## YPGFM-NH2 [L-Pro^2 -Met-enkephalin-amide]
Opiate receptors
  IC50: 90000 nM

Reference: patent publication US4371463A, “Enzyme-resistant opiate pentapeptides” (priority 1977, dated 1983)
